From paper PMC5733478, “A Non-imaging High Throughput Approach to Chemical Library Screening at the Unmodified Adenosine-A3 Receptor in Living Cells” (Frontiers in Pharmacology, 2017)
Where a name gives a salt, the structure may show the parent alone.

Each compound was assayed against T1, human A3AR (Homo sapiens, UniProt P0DMS8) (assay: LOPAC library primary screen: single concentration (10 μM) inhibition of 25 nM CA200645 binding, PHERAstar FS). Conditions: not given.
T1 construct: expressed in transfected cells
T1 sequence (P0DMS8 1-318): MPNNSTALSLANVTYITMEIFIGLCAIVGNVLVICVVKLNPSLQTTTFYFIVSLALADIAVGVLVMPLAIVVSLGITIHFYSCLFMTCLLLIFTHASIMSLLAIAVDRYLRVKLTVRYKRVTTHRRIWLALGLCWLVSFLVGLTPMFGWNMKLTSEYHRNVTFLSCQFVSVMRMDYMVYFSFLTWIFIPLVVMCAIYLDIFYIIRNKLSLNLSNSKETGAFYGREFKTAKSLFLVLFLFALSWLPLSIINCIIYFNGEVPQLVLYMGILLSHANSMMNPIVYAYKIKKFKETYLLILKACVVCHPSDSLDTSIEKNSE

Row | Structure (SMILES) | % 25 nM CA200645 binding | % Total CA200645 binding
1 | Cl.O=C(Cc1ccc(Cl)c(Cl)c1)N1CCCCC1CN1CCCC1 (stereo not shown) [BRL 52537 hydrochloride] | 112.4 ± 4.2% | –
2 | CC1=NS(=O)(=O)c2cc(Cl)ccc2N1 [Diazoxide] | 101.5 ± 12.2% | –
3 | Cl.Cl.Cn1cnc(CCN)c1 [1-Methylhistamine dihydrochloride] | 99.7 ± 10.5% | –
4 | N=C(N)NC(=N)Nc1ccccc1 [1-Phenylbiguanide] | 96.2 ± 2.3% | –
5 | CCCCCCCC/C=C\CCCCCCCC(=O)NCc1ccc(O)c(OC)c1 [Olvanil] | 76.7 ± 2.8% | –
6 | O=C1NC(=O)/C(=C\c2ccc3nccnc3c2)S1 [AS605240] | 83.4 ± 13.4% | –
7 | CC(CN1c2ccccc2Sc2ccccc21)N(C)C (stereo not shown) [Promethazine hydrochloride] | 96.7 ± 11.4% | –
8 | CC(=O)Oc1ccccc1C(=O)O [Acetylsalicylic acid] | 102.5 ± 9.1% | –
9 | O=c1c2ccccc2[nH]c(=S)n1CCN1CCC(=C(c2ccc(F)cc2)c2ccc(F)cc2)CC1 [Diacylglycerol Kinase Inhibitor II] | 51.5 ± 9.4% | –
10 | CN(C)CC/C=C1/c2ccccc2Sc2ccc(Cl)cc21 [Chlorprothixene hydrochloride] | 96.6 ± 7.7% | –
11 | COc1ccc2c(c1)c(CC(=O)O)c(C)n2C(=O)c1ccc(Cl)cc1 [Indomethacin] | 72.9 ± 18.3% | –
12 | CC1CCN=C(N)S1.Cl (racemic) [(±)-AMT hydrochloride] | 100.6 ± 12.5% | –
13 | COc1ccc(CCN(C)CCCC(C#N)(c2cc(OC)c(OC)c(OC)c2)C(C)C)cc1OC.Cl (racemic) [(±)-Methoxyverapamil hydrochloride] | 97.3 ± 10.6% | –
14 | Nc1nc2c(nc(Br)n2[C@@H]2O[C@@H]3COP(=O)([O-])O[C@H]3[C@H]2O)c(=O)[nH]1.[Na+] [8-Bromo-cGMP sodium] | 102.4 ± 7.4% | –
15 | CCC(C)N(C)C(=O)c1cc2ccccc2c(-c2ccccc2Cl)n1 (stereo not shown) [PK 11195] | 93.2 ± 6.1% | –
16 | N[C@@H](Cc1c[nH]c2ccc(O)cc12)C(=O)O [5-Hydroxy-L-tryptophan] | 97.7 ± 1.5% | –
17 | Cc1cc([C@@H]2CCCN2C)on1.Cl [ABT-418 hydrochloride] | 101.9 ± 4.7% | –
18 | O=C(C1CCCCC1)N1CC(=O)N2CCc3ccccc3C2C1 (stereo not shown) [Praziquantel] | 100.5 ± 15.0% | –
19 | Nc1nc2c(ncn2[C@@H]2O[C@H](CO)[C@@H](O)[C@@H]2O)c(=O)[nH]1.O [Ara-G hydrate] | 96.8 ± 6.9% | –
20 | CC(=N)NCCCC[C@H](N)C(=O)O.Cl [L-N6-(1-Iminoethyl)lysine hydrochloride] | 96.4 ± 1.7% | –
21 | CC#CCOC(=O)c1c(C)nc2sc3c(c2c1N)CCC(O)C3 (stereo not shown) [SB 205384] | 95.1 ± 6.2% | –
22 | NCCCP(=O)(O)O [3-Aminopropylphosphonic acid] | 90.0 ± 2.1% | –

Row | Structure (SMILES) | % 25 nM CA200645 binding | % Total CA200645 binding
23 | CC(C)(Oc1ccc(C2CC2(Cl)Cl)cc1)C(=O)O (stereo not shown) [Ciprofibrate] | 98.7 ± 5.2% | –
24 | CCn1c(=O)[nH]c2cc(Cl)c(Cl)cc21 [DCEBIO] | 87.8 ± 8.9% | –
25 | CN(C)C/C=C(/c1ccc(Br)cc1)c1cccnc1 [Zimelidine dihydrochloride] | 92.5 ± 9.4% | –
26 | CC(C)N(CCC(C(N)=O)(c1ccccc1)c1ccccn1)C(C)C (stereo not shown) [Disopyramide phosphate] | 98.5 ± 7.6% | –
27 | COc1nc(C)nc(Cl)c1NC1=NCCN1.Cl [Moxonidine hydrochloride] | 99.1 ± 3.2% | –
28 | COc1ccc(C2(O)OC(=O)C(c3ccc4c(c3)OCO4)=C2Cc2cc(OC)c(OC)c(OC)c2)cc1 (stereo not shown) [PD-156707] | 71.9 ± 8.4% | –
29 | CC(C)(C)NC[C@H](O)COc1nsnc1N1CCOCC1.O=C(O)/C=C\C(=O)O [S(-)-Timolol maleate] | 103.3 ± 4.5% | –
30 | CCCCc1ncc(/C=C(\Cc2cccs2)C(=O)O)n1Cc1ccc(C(=O)O)cc1 [Eprosartan mesylate] | 97.5 ± 15.0% | –
31 | Cc1cccc(C)c1NC(=O)CN1CCCC1=O [Nefiracetam] | 88.8 ± 23.8% | –
32 | NCC(=O)NCCC(c1ccccc1)c1ccccc1 [N-(3,3-Diphenylpropyl)glycinamide] | 98.7 ± 7.8% | –
33 | Cc1ccc(S(=O)(=O)O)cc1.NC[C@H]1O[C@@H](n2cnc3c(N)ncnc32)[C@H](O)[C@@H]1O | 85.5 ± 26.7% | –
34 | COc1ccc2c(c1)CC[C@@H]1[C@@H]2CC[C@]2(C)[C@@H](NCCCCCCN3C(=O)CCC3=O)CC[C@@H]12 [U-73343] | 99.9 ± 5.3% | –
35 | CC1=C(C(=O)O)N2C(=O)[C@@H](NC(=O)[C@H](N)c3ccccc3)[C@H]2SC1.O [Cephalexin hydrate] | 101.0 ± 8.0% | –
36 | Cl.Cl.O=c1ccc2[nH]cc(C3=CCNCC3)c2[nH]1 [CP-93129 dihydrochloride hydrate] | 102.1 ± 6.9% | –
37 | O=c1[nH]c2ccccc2c2ccccc12 [6(5H)-Phenanthridinone] | 41.6 ± 14.1% | –
38 | Cn1c(=O)c2[nH]cnc2n(C)c1=O.Cn1c(=O)c2[nH]cnc2n(C)c1=O.NCCN [Aminophylline ethylenediamine] | 89.2 ± 8.4% | –
39 | O=C(Nc1ccccc1)c1cc([N+](=O)[O-])ccc1Cl [GW9662] | 114.5 ± 11.5% | –
40 | Cc1cc(NC2CCCCC2)nc(-n2nc(C)cc2C)n1 [CyPPA] | 68.8 ± 15.9% | –
41 | CC[N+](CC)(CC)CCOc1ccc(/C=C/c2ccccc2)cc1 [MG 624] | 106.9 ± 11.5% | –
42 | CC(N)Cc1c[nH]c2ccc(OCc3cccs3)cc12 (stereo not shown) [BW 723C86] | 102.2 ± 11.4% | –
43 | COc1cc2c(cc1OC)C1CC(=O)C(CC(C)C)CN1CC2 (stereo not shown) [Tetrabenazine] | 91.3 ± 18.4% | –
44 | CC1COc2c(N3CCN(C)CC3)c(F)cc3c(=O)c(C(=O)O)cn1c23 (stereo not shown) [Ofloxacin] | 93.4 ± 20.0% | –

Row | Structure (SMILES) | % 25 nM CA200645 binding | % Total CA200645 binding
45 | C[N+](C)(C)CCOC(=O)CCC(=O)OCC[N+](C)(C)C [Succinylcholine chloride] | 98.6 ± 15.7% | –
46 | O=C1C(SCCO)=C(SCCO)C(=O)c2ccccc21 [NSC 95397] | 96.3 ± 15.0% | –
47 | CN(C(=O)Cc1ccc(Cl)c(Cl)c1)C(CN1CCCC1)c1cccc(OCC(=O)O)c1.Cl (stereo not shown) [ICI 204,448 hydrochloride] | 104.6 ± 7.5% | –
48 | COc1ccc2c(c[n+](C)c3c4cc5c(cc4ccc23)OCO5)c1OC [Chelerythrine chloride] | 73.9 ± 3.7% | –
49 | CCC1(C)CC(=O)NC1=O (stereo not shown) [Ethosuximide] | 88.4 ± 5.5% | –
50 | O=[N+]([O-])c1cc(O)c(O)c([N+](=O)[O-])c1 [3,5-Dinitrocatechol] | 100.0 ± 11.8% | –
51 | CC(C)(C)c1onc(OCP(=O)(O)O)c1CC(N)C(=O)O (stereo not shown) [ATPO] | 98.4 ± 3.3% | –
52 | Nc1nc2c(cnn2CCc2ccccc2)c2nc(-c3ccco3)nn12 [SCH 58261, reference compound] | 52.5 ± 9.7% | 52.2 ± 5.4%
53 | CCN(CC)CCNC(=O)c1c(C)[nH]c(/C=C2\C(=O)Nc3ccc(F)cc32)c1C [Sunitinib malate] | 97.4 ± 12.4% | –
54 | C[C@]12C[C@H](O)[C@H]3[C@@H](CCC4=CC(=O)CC[C@@]43C)[C@@H]1CC[C@@H]2C(=O)CO [Corticosterone] | 99.8 ± 5.3% | –
55 | O=C(CCCN1CC=C(n2c(=O)[nH]c3ccccc32)CC1)c1ccc(F)cc1 [Droperidol] | 101.2 ± 18.5% | –
56 | CCCCCCCC/C=C\CCCCCCCC(=O)NCCO [N-Oleoylethanolamine] | 98.2 ± 10.8% | –
57 | O=C(O)Cc1c[nH]c2ccc(O)cc12 [5-Hydroxyindolacetic acid] | 102.3 ± 8.2% | –
58 | CN1CC[C@@]2(C)c3cc(O)ccc3N(C)[C@@H]12.O=C(O)/C=C/C(=O)O [(-)-Eseroline fumarate] | 105.8 ± 9.3% | –
59 | Nc1ncnc2c1ncn2C1CCCO1 (stereo not shown) [SQ 22536] | 102.7 ± 4.9% | –
60 | Clc1ccc(N2C[C@H]3CC[C@@H](C2)N3)nn1 [DBO-83] | 97.7 ± 11.0% | –
61 | Cc1cn[nH]c1.Cl [4-Methylpyrazole hydrochloride] | 102.3 ± 3.8% | –
62 | COCCOC(=O)C1=C(C)NC(C)=C(C(=O)OC/C=C/c2ccccc2)C1c1cccc([N+](=O)[O-])c1 (stereo not shown) [Cilnidipine] | 67.0 ± 19.0% | –
63 | O=C(O)CP(=O)(O)O [Phosphonoacetic acid] | 103.4 ± 12.3% | –
64 | Cn1c(=O)c2c(nc(C=Cc3cccc(Cl)c3)n2C)n(C)c1=O [8-(3-Chlorostyryl)caffeine] | 79.6 ± 7.9% | –
65 | c1ccc2c(CC3=NCCN3)cccc2c1 [Naphazoline hydrochloride] | 105.3 ± 13.5% | –

Same assay, conditions: % of control wells (1% DMSO and 25 nM CA200645); compounds at 10 µM; […]; mean ± SD, three experiments in duplicate

Row | Structure (SMILES) | % 25 nM CA200645 binding
66 | O=C1Nc2ccccc2/C1=C1/Nc2ccccc2/C1=N\O [Indirubin-3'-oxime] | 50.6 ± 24.7%

Same assay, conditions: % of control wells (1% DMSO and 25 nM CA200645); compounds at 10 µM; whole live cells expressing the A3AR; mean ± SD, three experiments in duplicate

Row | Structure (SMILES) | % 25 nM CA200645 binding
67 | OC(CN1CCC(Cc2ccc(F)cc2)CC1)c1ccc(Cl)cc1 (stereo not shown) [Eliprodil] | 98.8 ± 8.5%
68 | Clc1ccc2c(c1)N=C(N1CCNCC1)c1ccccc1N2 [N-Desmethylclozapine] | 98.4 ± 14.7%

Same assay, conditions: compounds tested at 10 µM; % of control wells (1% DMSO and 25 nM CA200645); whole live cells expressing the A3AR; mean ± SD, three experiments in duplicate

Row | Structure (SMILES) | % 25 nM CA200645 binding
69 | CC(C)C[C@H](NP(=O)([O-])O[C@H]1O[C@H](C)[C@@H](O)[C@H](O)[C@@H]1O)C(=O)N[C@@H](Cc1c[nH]c2ccccc12)C(=O)[O-].[Na+].[Na+] [Phosphoramidon disodium] | 101.2 ± 7.1%
